# Data as given in patent US20230028658A1, “EXPANDED DOSAGE REGIMENS FOR INTEGRIN INHIBITORS” (Pliant Therapeutics, Inc., priority 2021, published 2023).
# pIC50: −log10 of the molar value. Read-outs that look alike come from different tables or passages of the source.
# Experiments:
# [1] = test system: IPF-derived human lung fibroblasts; assay: LAP adhesion binding assay, IPF-derived human lung fibroblasts (xCELLigence cell index); type: cell-based; conditions: FIG. 3B, adhesion to LAP
# Description: Two latency associated peptide (LAP) adhesion binding assays were devised using primary human lung cells, including normal (healthy) human bronchial epithelial cells and human lung fibroblasts (healthy and IPF).
# Human lung fibroblasts derived from normal and IPF lung tissue are known to express αvβ1 integrin. The IPF-derived human lung fibroblasts were prepared for the assay by dissociation with trypsin/EDTA, and were seeded at 20,000 cells per well on 96 well plates (ACEA Bioscience E-plate View, Acea Biosciences; San Diego, Calif.) previously coated with 5 μg/ml of recombinant human LAP (R&D Systems; Minneapolis, Minn.) and blocked with 4% bovine serum albumin. Cell index (electrical impedance) was measured to assess cell attachment/spreading every 3 minutes for 24 hours at 37° C./5% CO2 using the xCELLigence RTCA MP Instrument (Acea Biosciences; San Diego, Calif.). […] In the assay, the IPF-derived human lung fibroblasts were separately incubated with: the αvβ1-selective small molecule inhibitor; the selective antibody αvβ6 inhibitor, 3G9; and compound 5.
# healthy mice = assay: pSMAD3/SMAD3 in lung tissue and BALF of healthy mice; type: in vivo; conditions: 4 days of compound 5 treatment, FIG. 4B
# Excerpt: It has been previously shown that inhibition of αvβ6 in the lung can be detected though measurement of phospho-SMAD (pSMAD) in alveolar macrophages. Alveolar macrophages are known to operate in a unique niche in the lung, distinct from interstitial macrophages. SMAD3 is a downstream target of the active TGF-β cytokine binding its receptor and in alveolar macrophages it is phosphorylated by homoeostatic levels of TGF-β. Accordingly, it was desirable to know whether inhibition of TGF-β activation using the disclosed compounds would result in reduced SMAD2 and SMAD3 phosphorylation.
# Mice (C57BL/6) were divided into healthy (n=15), vehicle-treated (n=15), and test article-treated (n=15 per dose) groups. […] […] […] […] […] […] […] Samples were prepared for analysis either directly from lung tissue, or by bronchoalveolar lavage, which washes out the bronchiolar and alveolar space with saline to produce a bronchoalveolar lavage fluid (BALF) in which 80-90% of cells are alveolar macrophages.
# FIG. 4A is a graph of PSMAD3/SMAD3 in lung tissue from healthy mice administered PBS vehicle and varying levels of compound 5 for 4 days. FIG. 4B is a graph of PSMAD3/SMAD3 in BALF drawn from the same healthy mice administered PBS vehicle and varying levels of compound 5 for 4 days.
# [2] = test system: Type I Collagen gene Col1a1 expression; assay: Precision cut lung slices of mice under acute bleomycin exposure, Col1a1 expression; type: cell-based, Mice (C57BL/6); conditions: acute bleomycin PCLS, 3 days culture, normalized to DMSO; FIG. 5A
# Description: Mice (C57BL/6) were administered 3 U/kg of bleomycin (Teva Pharmaceuticals; North Wales, Pa.) on day 0 via oropharyngeal aspiration while under anesthesia. On day 14, precision cut lung slices were obtained. Following euthanization, 2% low gelling temp agarose was injected into the mouse lungs via the trachea. […] The lobes were then subjected to precision slicing to obtain samples for culture using a microtome (Compresstome VF-300-0Z, Precisionary; Greenville, N.C.). Individual slices were distributed in a multiwell culture plate and cultured for 3 days under control (DMSO) and test compound conditions.
# [3] = First-in-human SAD and MAD pharmacokinetics (Example B12); type: in vivo; conditions: plasma, healthy subjects, oral solution, SAD 15-75 mg and MAD 10-40 mg, read-out: calculated half life
# Description: Healthy human subjects (N=85) were selected for single ascending dose (SAD) and multiple ascending dose (MAD) first-in-human studies. A solution for oral administration was prepared, containing 10 mg/mL of compound 5 in a 50:50 mixture of ORA-SWEET® SF (PERRIGO®, Allegan, Mich.) and sterile water for irrigation. Sufficient solution was administered orally to the subjects to provide between 15 mg/dose and 75 mg/dose of compound 5 in the SAD study and between 10 mg/dose and 40 mg/dose of compound 5 in the MAD study. Concentrations of compound 5 were measured in the subjects by obtaining a sample of plasma from each subject at desired intervals, and subjecting the plasma to liquid chromatography-mass spectrometry-mass spectrometry (LC-MS/MS), with quantification using a calibration curve determined from a range of solutions at standardized concentrations. The lower limit of quantitation (LLOQ) of the assay was 1 ng/mL and the calibration curve range was 1 to 500 ng/mL.
# [4] = Multiple dose pharmacokinetics (MAD), Example B14; type: in vivo; conditions: human, plasma, oral; for AUC(0-t): read-out: AUC0−24, ng × h/mL; for Tmax: median
# Excerpt: Accordingly, a study was designed to assess the PK of Compound 5 after a single dose and following a 6-day course of doses, at levels exceeding the dosages used in preceding Examples B12 and B13. This study was designed to assess at these higher doses aspects of the single-dose and steady-state pharmacokinetics of Compound 5.
# This study was a single-center, randomized, double-blind, ascending dose, placebo-controlled study in healthy participants. Each cohort included 10 participants (8 active, 2 placebo). Study participants received single ascending doses (SAD) of Compound 5 of 120, 160, 240, 320, 480, and 640 mg and multiple ascending doses (MAD) of Compound 5 of 80, 120, 160, 240, and 320 mg. Two cohorts of participants at 160 mg were studied in the MAD phase of the study.
# Participants received 7 daily doses of Compound 5 80, 120, 160, 240, and 320 mg. A total of 60 participants were enrolled across the dosing groups, with 48 participants who received Compound 5 available for PK analyses. One participant discontinued study drug prior to completing all study procedures. […] Despite the substantially higher dosages, the PK parameters in the dosing groups were consistent with those observed at lower doses in Example B12. Following multiple doses of Compound 5 (oral solution) ranging from 80 to 320 mg QD, median plasma Compound 5 concentrations reached maximum levels after 3 to 4 hours. Geometric mean T1/2 remained relatively unchanged with increasing dose, ranging from 36 to 55 hours.
# αvβ6 = αvβ6 (Homo sapiens, UniProt P06756+P18564); assay: IC50 of αvβ6 adjusted for protein binding
# Chain of αvβ6 (P06756 31-1048): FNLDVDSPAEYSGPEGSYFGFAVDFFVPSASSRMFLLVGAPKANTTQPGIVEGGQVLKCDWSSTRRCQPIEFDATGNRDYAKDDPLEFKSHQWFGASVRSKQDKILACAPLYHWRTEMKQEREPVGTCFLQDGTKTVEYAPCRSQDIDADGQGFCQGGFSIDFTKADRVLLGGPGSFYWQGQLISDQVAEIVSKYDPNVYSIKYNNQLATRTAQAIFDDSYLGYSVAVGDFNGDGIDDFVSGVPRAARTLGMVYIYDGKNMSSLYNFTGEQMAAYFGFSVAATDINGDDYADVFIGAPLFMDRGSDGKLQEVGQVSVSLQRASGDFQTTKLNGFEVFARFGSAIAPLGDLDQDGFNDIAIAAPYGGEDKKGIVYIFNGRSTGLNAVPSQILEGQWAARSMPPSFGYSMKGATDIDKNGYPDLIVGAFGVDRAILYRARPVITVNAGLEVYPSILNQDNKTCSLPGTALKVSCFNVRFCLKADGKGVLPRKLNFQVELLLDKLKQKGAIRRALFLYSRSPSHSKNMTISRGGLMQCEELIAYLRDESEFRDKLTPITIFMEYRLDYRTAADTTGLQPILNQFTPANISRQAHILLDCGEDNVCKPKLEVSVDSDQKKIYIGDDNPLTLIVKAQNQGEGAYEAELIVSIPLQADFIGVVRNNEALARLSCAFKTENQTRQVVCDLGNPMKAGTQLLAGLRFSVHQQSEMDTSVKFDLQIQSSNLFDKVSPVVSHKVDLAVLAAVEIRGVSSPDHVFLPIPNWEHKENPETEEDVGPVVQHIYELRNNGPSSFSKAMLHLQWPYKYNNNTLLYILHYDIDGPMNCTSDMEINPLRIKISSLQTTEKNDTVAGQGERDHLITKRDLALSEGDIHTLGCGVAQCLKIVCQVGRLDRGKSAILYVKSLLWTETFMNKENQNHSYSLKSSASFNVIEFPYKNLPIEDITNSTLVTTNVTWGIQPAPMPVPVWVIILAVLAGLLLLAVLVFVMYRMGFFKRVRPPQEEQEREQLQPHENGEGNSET
# Chain of αvβ6 (P18564 22-788): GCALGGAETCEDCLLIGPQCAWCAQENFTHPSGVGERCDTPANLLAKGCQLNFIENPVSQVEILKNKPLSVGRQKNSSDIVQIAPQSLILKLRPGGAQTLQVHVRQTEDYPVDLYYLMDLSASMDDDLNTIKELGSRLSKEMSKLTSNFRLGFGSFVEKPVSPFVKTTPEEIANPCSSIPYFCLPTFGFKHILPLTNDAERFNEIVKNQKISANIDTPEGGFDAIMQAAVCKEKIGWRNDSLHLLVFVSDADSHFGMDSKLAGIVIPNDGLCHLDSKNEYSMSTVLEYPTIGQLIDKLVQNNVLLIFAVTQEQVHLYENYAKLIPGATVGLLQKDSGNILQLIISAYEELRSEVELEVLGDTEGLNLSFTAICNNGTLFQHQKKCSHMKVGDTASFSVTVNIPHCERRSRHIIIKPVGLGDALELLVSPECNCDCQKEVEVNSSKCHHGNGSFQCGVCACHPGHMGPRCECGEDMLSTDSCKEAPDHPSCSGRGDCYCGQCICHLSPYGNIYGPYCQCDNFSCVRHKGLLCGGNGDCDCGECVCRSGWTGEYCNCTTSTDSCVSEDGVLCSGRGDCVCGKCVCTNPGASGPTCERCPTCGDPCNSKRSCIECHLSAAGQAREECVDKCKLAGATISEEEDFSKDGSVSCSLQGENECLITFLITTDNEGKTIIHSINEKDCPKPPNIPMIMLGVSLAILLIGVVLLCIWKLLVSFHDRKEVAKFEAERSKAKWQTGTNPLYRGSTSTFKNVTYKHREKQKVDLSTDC
# [5] = 80 mg daily, Day 7, geometric mean
# [6] = 120 mg daily, Day 7, geometric mean
# [7] = 160 mg daily, Day 7, two cohorts pooled, geometric mean
# [8] = 240 mg daily, Day 7, geometric mean
# [9] = 320 mg daily, Day 7, geometric mean
structure (smiles),measurement,setting,value
"COCCN(CCCCc1ccc2c(n1)NCCC2)CC[C@H](Nc1ncnc2ccccc12)C(=O)O [Compound 5, (S)-4-((2-methoxyethyl) (4-(5,6,7,8-tetrahydro-1,8-naphthyridin-2-yl)butyl)amino)-2-(quinazolin-4-ylamino) butanoic acid]",inhibition of cell adhesion in the IPF-derived lung fibroblasts,[1],substantially inhibited
same,PSMAD3/SMAD3 in cells isolated from BALF,healthy mice,approximately 50 % of the untreated levels
same,Type I Collagen gene Col1a1 expression,[2],decreased Type I Collagen gene Col1a1 expression substantially
same,half-life,[3],35 to 55 h
same,Cmax,[4]; [5],1850 ng/mL
same,AUC(0-t),[4]; [5],19200 ng·h/mL
same,half-life,"[4]; 80 mg daily, Day 7, geometric mean, read-out: T1/2 (converted)",36.1 h
same,Tmax,"[4]; 80 mg daily, Day 7",3.5 h
same,Cmax,[4]; [6],4040 ng/mL
same,AUC(0-t),[4]; [6],49400 ng·h/mL
same,half-life,"[4]; 120 mg daily, Day 7, geometric mean, read-out: T1/2 (converted)",55.4 h
same,Tmax,"[4]; 120 mg daily, Day 7",4.03 h
same,Cmax,[4]; [7],3790 ng/mL
same,AUC(0-t),[4]; [7],49400 ng·h/mL
same,half-life,"[4]; 160 mg daily, Day 7, two cohorts pooled, geometric mean, read-out: T1/2 (converted)",41.7 h
same,Tmax,"[4]; 160 mg daily, Day 7, two cohorts pooled",3 h
same,Cmax,[4]; [8],5140 ng/mL
same,AUC(0-t),[4]; [8],63000 ng·h/mL
same,half-life,"[4]; 240 mg daily, Day 7, geometric mean, read-out: T1/2 (converted)",50.5 h
same,Tmax,"[4]; 240 mg daily, Day 7",3 h
same,Cmax,[4]; [9],5730 ng/mL
same,AUC(0-t),[4]; [9],74500 ng·h/mL
same,half-life,"[4]; 320 mg daily, Day 7, geometric mean, read-out: T1/2 (converted)",46 h
same,Tmax,"[4]; 320 mg daily, Day 7",3.56 h
same,half-life,"[4]; multiple doses 80 to 320 mg QD, read-out: Geometric mean T1/2",36 to 55 h
same,pIC50,αvβ6,8.00
